Measurements as given in the supplement of paper PMC4862054.

Experiments:
BT-474 [1] = conditions: 72 h
Method in brief: (§1)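 Two sequential readouts followed a 72 h incubation of breast cancer cell lines with compound at 5 concentrations in 10-fold steps over a compound-specific 10,000-fold range: CellTox Green fluorescence (485/520 nm) for cell death, then CellTiter-Glo luminescence, after 10 min at room temperature, for viability. Each plate was normalised to 0.1 % DMSO and a positive kill control. Dose-response curves were fitted for EC50, censored at the top concentration.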

BT-549 = conditions: 72 h
Method in brief: as §1

CAL-120 [2] = conditions: 72 h
Method in brief: as §1

CAL-51 [3] = conditions: 72 h
Method in brief: as §1

CAL-85-1 [4] = conditions: 72 h
Method in brief: as §1

HCC1937 [5] = conditions: 72 h
Method in brief: as §1

Hs578T [6] = conditions: 72 h
Method in brief: as §1

MCF-10A = conditions: 72 h
Method in brief: as §1

MDA-MB-231 [7] = conditions: 72 h
Method in brief: as §1

MDA-MB-436 [8] = conditions: 72 h
Method in brief: as §1

MDA-MB-468 [9] = conditions: 72 h
Method in brief: as §1

SK-BR-3 = conditions: 72 h
Method in brief: as §1

BT-474 [10] = assay: normalised viability (% of control), CellTiter-Blue; higher = more viable cells (about 100 = DMSO control); conditions: incubation time: 72 h
Method in brief: (§2)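 Breast cancer cell lines were treated for 72 h in 384-well format and measured by CellTiter-Blue fluorescence at 560/590 nm. Results were normalised per plate to vehicle (100) and a positive kill control (0). The entry is normalised viability at a single listed concentration of the series.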

CAL-120 [11] = assay: as above; conditions: incubation time: 72 h
Method in brief: as §2

CAL-51 [12] = assay: as above; conditions: incubation time: 72 h
Method in brief: as §2

CAL-85-1 [13] = assay: as above; conditions: incubation time: 72 h
Method in brief: as §2

HCC1599 [14] = assay: as above; conditions: incubation time: 72 h
Method in brief: as §2

HCC1937 [15] = assay: as above; conditions: incubation time: 72 h
Method in brief: as §2

Hs578T [16] = assay: as above; conditions: incubation time: 72 h
Method in brief: as §2

MDA-MB-436 [17] = assay: as above; conditions: incubation time: 72 h
Method in brief: as §2

MDA-MB-453 [18] = assay: as above; conditions: incubation time: 72 h
Method in brief: as §2

MDA-MB-468 [19] = assay: as above; conditions: incubation time: 72 h
Method in brief: as §2

BT-474 [20] = assay: as above; conditions: incubation time: 72 h; remark: listed apart in the source
Method in brief: as §2

CAL-51 [21] = assay: as above; conditions: incubation time: 72 h; remark: listed apart in the source
Method in brief: as §2

DU-4475 [22] = assay: as above; conditions: incubation time: 72 h
Method in brief: as §2

HCC1143 = assay: as above; conditions: incubation time: 72 h
Method in brief: as §2

HCC1599 [23] = assay: as above; conditions: incubation time: 72 h; remark: listed apart in the source
Method in brief: as §2

HCC1937 [24] = assay: as above; conditions: incubation time: 72 h; remark: listed apart in the source
Method in brief: as §2

HDQ-P1 [25] = assay: as above; conditions: incubation time: 72 h
Method in brief: as §2

MDA-MB-231 [26] = assay: as above; conditions: incubation time: 72 h
Method in brief: as §2

MDA-MB-468 [27] = assay: as above; conditions: incubation time: 72 h; remark: listed apart in the source
Method in brief: as §2

CAL-148 = assay: normalised viability (% of control), CellTiter-Blue; higher = more viable cells (about 100 = DMSO control); conditions: incubation time: 72 h
Experimental: (§3)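 DSRT, CellTiter-Blue viability, 72 h incubation. Signal is normalised to DMSO and benzethonium chloride controls. Value is the normalised response at dose 6.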

CAL-51 [28] = assay: as above; conditions: incubation time: 72 h; remark: listed apart in the source
Experimental: as §3

CAL-85-1 [29] = assay: as above; conditions: incubation time: 72 h; remark: listed apart in the source
Experimental: as §3

DU-4475 [30] = assay: as above; conditions: incubation time: 72 h; remark: listed apart in the source
Experimental: as §3

HDQ-P1 [31] = assay: as above; conditions: incubation time: 72 h; remark: listed apart in the source
Experimental: as §3

MDA-MB-453 [32] = assay: as above; conditions: incubation time: 72 h; remark: listed apart in the source
Experimental: as §3

MDA-MB-453 [33] = conditions: 72 h
Method in brief: as §1

CN(C)CCN1C(=O)c2cccc3cc(N)cc(c23)C1=O [Amonafide]
EC50, CellTiter-Glo (BT-474 [1]): 1660 nM
EC50, CellTiter-Glo (BT-549): 3270 nM
EC50, CellTiter-Glo (CAL-120 [2]): 2700 nM
EC50, CellTiter-Glo (CAL-51 [3]): 5570 nM
EC50, CellTiter-Glo (CAL-85-1 [4]): 9240 nM
EC50, CellTiter-Glo (HCC1937 [5]): > 10000 nM
EC50, CellTiter-Glo (Hs578T [6]): 1920 nM
EC50, CellTiter-Glo (MCF-10A): 8420 nM
EC50, CellTiter-Glo (MDA-MB-231 [7]): 2840 nM
EC50, CellTiter-Glo (MDA-MB-436 [8]): 7370 nM
EC50, CellTiter-Glo (MDA-MB-468 [9]): 7960 nM
EC50, CellTiter-Glo (SK-BR-3): 5430 nM
normalised viability (BT-474 [10]; 10000 nM): 69.3%
normalised viability (CAL-120 [11]; 10000 nM): 24.3%
normalised viability (CAL-51 [12]; 100 nM): 104%
normalised viability (CAL-85-1 [13]; 100 nM): 87.8%
normalised viability (HCC1599 [14]; 10000 nM): 47.5%
normalised viability (HCC1937 [15]; 10000 nM): 29.5%
normalised viability (Hs578T [16]; 10000 nM): 47.6%
normalised viability (MDA-MB-436 [17]; 10000 nM): 44.1%
normalised viability (MDA-MB-453 [18]; 100 nM): 81%
normalised viability (MDA-MB-468 [19]; 10000 nM): 41.3%
normalised viability (BT-474 [20]; 100 nM): 119%
normalised viability (CAL-51 [21]; 10 nM): 111%
normalised viability (DU-4475 [22]; 10 nM): 95.8%
normalised viability (HCC1143; 100 nM): 87%
normalised viability (HCC1599 [23]; 100 nM): 102%
normalised viability (HCC1937 [24]; 100 nM): 109%
normalised viability (HDQ-P1 [25]; 10 nM): 105%
normalised viability (MDA-MB-231 [26]; 100 nM): 88%
normalised viability (MDA-MB-468 [27]; 100 nM): 113%
normalised viability (CAL-148; 300 nM): 89.8%
normalised viability (CAL-51 [28]; 300 nM): 109%
normalised viability (CAL-85-1 [29]; 300 nM): 91.7%
normalised viability (DU-4475 [30]; 300 nM): 92.3%
normalised viability (HDQ-P1 [31]; 300 nM): 67.5%
normalised viability (MDA-MB-453 [32]; 300 nM): 92.5%

O=C1NC(=O)[C@@H](c2cn3c4c(cccc24)CCC3)[C@@H]1c1c[nH]c2ccccc12 [Tivantinib]
EC50, CellTiter-Glo (BT-474 [1]): > 1000 nM
EC50, CellTiter-Glo (BT-549): 639 nM
EC50, CellTiter-Glo (CAL-120 [2]): 991 nM
EC50, CellTiter-Glo (CAL-51 [3]): 744 nM
EC50, CellTiter-Glo (CAL-85-1 [4]): 528 nM
EC50, CellTiter-Glo (Hs578T [6]): 519 nM
EC50, CellTiter-Glo (MCF-10A): 318 nM
EC50, CellTiter-Glo (MDA-MB-231 [7]): 554 nM
EC50, CellTiter-Glo (MDA-MB-436 [8]): 391 nM
EC50, CellTiter-Glo (MDA-MB-453 [33]): 552 nM
EC50, CellTiter-Glo (MDA-MB-468 [9]): 613 nM
EC50, CellTiter-Glo (SK-BR-3): 387 nM
normalised viability (BT-474 [10]; 1000 nM): 45.4%
normalised viability (CAL-120 [11]; 1000 nM): 29.7%
normalised viability (CAL-51 [12]; 10 nM): 108%
normalised viability (CAL-85-1 [13]; 10 nM): 104%
normalised viability (HCC1599 [14]; 1000 nM): 79%
normalised viability (HCC1937 [15]; 1000 nM): 30.4%
normalised viability (Hs578T [16]; 1000 nM): 19.9%
normalised viability (MDA-MB-436 [17]; 1000 nM): 52.3%
normalised viability (MDA-MB-453 [18]; 10 nM): 107%
normalised viability (MDA-MB-468 [19]; 1000 nM): 42.4%
normalised viability (BT-474 [20]; 10 nM): 109%
normalised viability (CAL-51 [21]; 1 nM): 106%
normalised viability (DU-4475 [22]; 1 nM): 97.8%
normalised viability (HCC1143; 10 nM): 87.8%
normalised viability (HCC1599 [23]; 10 nM): 98.4%
normalised viability (HCC1937 [24]; 10 nM): 101%
normalised viability (HDQ-P1 [25]; 1 nM): 109%
normalised viability (MDA-MB-231 [26]; 10 nM): 116%
normalised viability (MDA-MB-468 [27]; 10 nM): 104%
normalised viability (CAL-148; 30 nM): 104%
normalised viability (CAL-51 [28]; 30 nM): 104%
normalised viability (CAL-85-1 [29]; 30 nM): 95.8%
normalised viability (DU-4475 [30]; 30 nM): 87.3%
normalised viability (HDQ-P1 [31]; 30 nM): 55.3%
normalised viability (MDA-MB-453 [32]; 30 nM): 107%
